Data on eleven molecules can be found in US20160298129A1, “ALS INHIBITOR HERBICIDE TOLERANT MUTANT PLANTS” (BAYER CROPSCIENCE NV, priority 2013, published 2016).

pIC50: −log10 of the molar value. Some results are limits rather than exact numbers.

The target in one test is AHAS P197S (Arabidopsis thaliana, UniProt P17597, E575Q/P197S). It is filed as biochemical. How it is done: (§1) Bacteria are grown at 37° C. in LB-medium containing 100 mg/l carbenicillin and 25 mg/l canamycin, induced with 1 mM isopropyl-β-D-thiogalactopyranoside at an OD600 of 0.6, cultivated for 16 hours at 18° C. and harvested by, e.g., centrifugation. Bacterial pellets are resuspended in 100 mM sodium phosphate buffer pH 7.0 containing 0.1 mM thiamine-pyrophosphate, 1 mM MgCl2, and 1 μM FAD at a concentration of 1 gram wet weight per 25 ml of buffer and disrupted by, e.g., sonification. The crude protein extract obtained after centrifugation is used for ALS activity measurements.
Chain of AHAS P197S (P17597 56-670 P197S/E575Q): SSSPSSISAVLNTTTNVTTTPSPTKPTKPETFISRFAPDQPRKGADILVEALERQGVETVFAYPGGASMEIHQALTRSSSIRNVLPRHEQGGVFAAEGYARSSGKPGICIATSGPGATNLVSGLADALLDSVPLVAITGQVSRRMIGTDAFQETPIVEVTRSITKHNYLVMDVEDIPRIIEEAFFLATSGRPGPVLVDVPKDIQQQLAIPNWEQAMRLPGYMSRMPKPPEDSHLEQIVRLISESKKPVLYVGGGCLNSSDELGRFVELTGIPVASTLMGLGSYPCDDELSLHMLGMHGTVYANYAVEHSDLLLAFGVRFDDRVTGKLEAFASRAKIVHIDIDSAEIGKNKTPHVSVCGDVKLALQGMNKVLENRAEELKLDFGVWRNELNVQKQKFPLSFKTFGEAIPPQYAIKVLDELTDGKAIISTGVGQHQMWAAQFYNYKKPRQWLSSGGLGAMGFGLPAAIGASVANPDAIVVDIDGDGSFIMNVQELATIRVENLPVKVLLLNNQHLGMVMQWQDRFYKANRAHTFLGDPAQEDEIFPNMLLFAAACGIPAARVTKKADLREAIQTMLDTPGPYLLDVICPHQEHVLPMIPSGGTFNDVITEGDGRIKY
(§2) ALS protein can be extracted from leaves or tissue cultures, such as B. napus or B. juncea leaves, or B. napus or B. juncea tissue cultures as described by Ray (Plant Physiol, 1984, 75:827-831). An ALS assays can be carried out in 96-well microtiter plates using a modification of the procedure described by Ray (1984): The reaction mixture contains 20 mM potassium phosphate buffer pH 7.0, 20 mM sodium pyruvate, 0.45 mM thiamine-pyrophosphate, 0.45 mM MgCl2, 9 μM FAD. ALS enzyme and various concentrations of ALS inhibitors can be mixed in a final volume of 90 μl Assays can be initiated by adding enzyme and the assays can be terminated after 75 min incubation at 30° C. by the addition of 40 μl 0.5 M H2SO4.

For the next test, the target named is AHAS W574L (Arabidopsis thaliana, UniProt P17597, E575Q/W574L). Type of test: biochemical. How it is done: as §1, §2
Chain of AHAS W574L (P17597 56-670 W574L/E575Q): as the sequence (P17597 56-670 P197S/E575Q) above, with S142P, W519L counted along it
The target in the next test is AHAS D376E (Arabidopsis thaliana, UniProt P17597, D376E/E575Q). As to the kind of experiment: biochemical. Conditions: for Resistance Factor: AHAS D376E. How it is done: as §1, §2
Chain of AHAS D376E (P17597 56-670 D376E/E575Q): as the sequence (P17597 56-670 P197S/E575Q) above, with S142P, D321E counted along it
Another test addresses AHAS D376E-W574L (Arabidopsis thaliana, UniProt P17597, D376E/E575Q/W574L). Description: biochemical. Conditions: for Resistance Factor: AHAS D376E-W574L. As to the method: as §1, §2
The target in another test is AHAS P197S-D376E (Arabidopsis thaliana, UniProt P17597, D376E/E575Q/P197S). As to the kind of experiment: biochemical. Conditions: for Resistance Factor: AHAS P197S-D376E. How it is done: as §1, §2
Chain of AHAS P197S-D376E (P17597 56-670 P197S/D376E/E575Q): as the sequence (P17597 56-670 P197S/E575Q) above, with D321E counted along it
In a further test the target is AHAS P197S-D376E-W574L (Arabidopsis thaliana, UniProt P17597, D376E/E575Q/P197S/W574L). Description: biochemical. The conditions noted are these: for Resistance Factor: AHAS P197S-D376E-W574L. How it is done: as §1, §2
Chain of AHAS P197S-D376E-W574L (P17597 56-670 P197S/D376E/W574L/E575Q): as the sequence (P17597 56-670 P197S/E575Q) above, with D321E, W519L counted along it
Another test addresses AHAS P197S-W574L (Arabidopsis thaliana, UniProt P17597, E575Q/P197S/W574L). As to the kind of experiment: biochemical. The conditions noted are these: for Resistance Factor: AHAS P197S-W574L. How it is done:
as §1, §2

In test [1] the test system is wild-type (WT) oilseed rape. Description: Field herbicide tolerance, visible phytotoxicity. It is filed as in vivo, Brassica napus. Conditions: gai/ha: imazamox 40, bispyribac-sodium 50, propoxycarbazone-sodium 70, mesosulfuron-methyl 60, pyroxsulam 12.5 + cloquintocet-mexyl 37.5, each + rapeseed oil methylated 366.5.
Test [2] relates to oilseed rape homozygous for HETO133 and HETO134 (133-134). Description: Field herbicide tolerance, visible phytotoxicity (ALS I W574L, ALS III W574L). It is filed as in vivo, Brassica napus. The conditions noted are these: gai/ha: imazamox 40, bispyribac-sodium 50, propoxycarbazone-sodium 70, mesosulfuron-methyl 60, pyroxsulam 12.5 + cloquintocet-mexyl 37.5, each + rapeseed oil methylated 366.5. The source says: (§3) Seeds of spring oilseed rape homozygous for HETO139 and HETO134 were sown in a field according to typical practical agricultural methods together with seeds homozygous for HETO134 and HETO133 (comprising a W574L mutation on ALS III, which were obtained in the same way as HETO134), and with seeds homozygous for HETO134 and HETO132 (comprising a P197S and a W574L mutation on ALS III, which were obtained in essentially the same way as HETO139). Several ALS inhibitor herbicides were applied to the oilseed rape plants by using specific spray equipment for small plot applications.

The subject of test [3] is oilseed rape homozygous for HETO132 and HETO134 (132-134). Description: Field herbicide tolerance, visible phytotoxicity (ALS I W574L, ALS III P197S-W574L). It is filed as in vivo, Brassica napus. Conditions: gai/ha: imazamox 40, bispyribac-sodium 50, propoxycarbazone-sodium 70, mesosulfuron-methyl 60, pyroxsulam 12.5 + cloquintocet-mexyl 37.5, each + rapeseed oil methylated 366.5.
From the text: as §3

In test [4] the test system is oilseed rape homozygous for HETO139 and HETO134 (139-134). Description: Field herbicide tolerance, visible phytotoxicity (ALS I W574L, ALS III P197S-D376E). It is filed as in vivo, Brassica napus. The conditions noted are these: gai/ha: imazamox 40, bispyribac-sodium 50, propoxycarbazone-sodium 70, mesosulfuron-methyl 60, pyroxsulam 12.5 + cloquintocet-mexyl 37.5, each + rapeseed oil methylated 366.5.
From the text: as §3

Chain of AHAS D376E-W574L (P17597 56-670 D376E/W574L/E575Q): as the sequence (P17597 56-670 P197S/E575Q) above, with S142P, D321E, W519L counted along it
Chain of AHAS P197S-W574L (P17597 56-670 P197S/W574L/E575Q): as the sequence (P17597 56-670 P197S/E575Q) above, with W519L counted along it

With `CCCOc1nn(C(=O)[N-]S(=O)(=O)c2ccccc2C(=O)OC)c(=O)n1C.[Na+]` [Propoxycarbazone], the “Resistance Factor” value is reported as 147 at AHAS P197S; 293 at AHAS W574L; 1468 on AHAS D376E; greater than 4641 on AHAS D376E-W574L; greater than 4641 on AHAS P197S-D376E; greater than 4641 on AHAS P197S-D376E-W574L. For the same molecule, the “Resistance Factor” value at AHAS P197S-W574L is listed as greater than 4641.

Turning to `COC(=O)c1ccc(I)cc1S(=O)(=O)[N-]C(=O)Nc1nc(C)nc(OC)n1.[Na+]` [Iodosulfuron-methy-sodium, iodosulfuron-methyl-sodium], the “Resistance Factor” value on AHAS P197S was 139; on AHAS W574L, 555; on AHAS D376E, 3503; at AHAS D376E-W574L, greater than 35030; on AHAS P197S-D376E it was greater than 35030; at AHAS P197S-D376E-W574L, greater than 35030. Moreover, the “Resistance Factor” value at AHAS P197S-W574L is on record as greater than 35030.

With `COc1cc(OC)nc(NC(=O)NS(=O)(=O)N(C)S(C)(=O)=O)n1` [Amidosulfuron, amidosulfuron], the “Resistance Factor” value on AHAS P197S, on AHAS W574L, on AHAS D376E, at AHAS D376E-W574L, at AHAS P197S-D376E and at AHAS P197S-D376E-W574L was greater than 488 throughout. In addition, the “Resistance Factor” value on AHAS P197S-W574L is recorded as greater than 488. For the same molecule, the negative-log IC50 (pIC50) against AHAS D376E, at AHAS D376E-W574L, against AHAS P197S-D376E, at AHAS P197S-D376E-W574L and at AHAS P197S-W574L was less than 4.00 in each case.

As for `COC(=O)c1ccccc1S(=O)(=O)NC(=O)Nc1nc(C)nc(OC)n1` [Metsulfuron-methyl, metsulfuron-methyl], the “Resistance Factor” value on AHAS P197S is recorded as 38; at AHAS W574L it was 755; on AHAS D376E it was 239; on AHAS D376E-W574L, greater than 7547; on AHAS P197S-D376E it was greater than 7547; on AHAS P197S-D376E-W574L, greater than 7547. Also, the “Resistance Factor” value at AHAS P197S-W574L is given as greater than 7547.

With `COC(=O)c1ccc(CNS(C)(=O)=O)cc1S(=O)(=O)NC(=O)Nc1nc(OC)cc(OC)n1` [Mesosulfuron-methyl, mesosulfuron-methyl], the “Resistance Factor” value on AHAS P197S was 65; on AHAS W574L, 25770; at AHAS D376E, 12915; on AHAS D376E-W574L it was greater than 64730; on AHAS P197S-D376E-W574L, greater than 64730; on AHAS P197S-W574L, greater than 64730. Further, the Percentage phytotoxicity in test [1] (9 DAA) amounted to 76.7%; in test [1] (16 DAA) it was 98%; in test [1] (24 DAA), 96%; in test [2] (9 DAA) it was 11.7%; in test [2] (16 DAA), 13.3%; in [2] (24 DAA), 3.3%. Also, the Percentage phytotoxicity amounted to 11.7% in test [3] (9 DAA); 11.7% in test [3] (16 DAA); 20.3% in test [3] (24 DAA); 9.3% in [4] (9 DAA); 13.3% in test [4] (16 DAA); 5% in test [4] (24 DAA).

As to `COC(=O)c1sccc1S(=O)(=O)NC(=O)Nc1nc(C)nc(OC)n1` [Thifensulfuron-Methyl, thifensulfuron-methyl], the “Resistance Factor” value was 200 on AHAS P197S; 1585 on AHAS W574L; 631 at AHAS D376E; greater than 2511 at AHAS D376E-W574L; greater than 2511 at AHAS P197S-D376E; greater than 2511 on AHAS P197S-D376E-W574L. Besides, the “Resistance Factor” value on AHAS P197S-W574L is reported as greater than 2511. For the same molecule, the pIC50 on AHAS D376E is 4.60; at AHAS D376E-W574L, less than 4.00; against AHAS P197S-D376E, less than 4.00; against AHAS P197S-D376E-W574L, less than 4.00; at AHAS P197S-W574L it was less than 4.00.

Consider `COc1cc(OC)n2nc(S(=O)(=O)Nc3c(Cl)ccc(C)c3Cl)nc2n1` [Metosulam, metosulam], for which the “Resistance Factor” value is 457 on AHAS P197S; 5754 on AHAS W574L; 575 on AHAS D376E; greater than 28840 on AHAS D376E-W574L; greater than 28840 at AHAS P197S-D376E; greater than 28840 at AHAS P197S-D376E-W574L. In addition, the “Resistance Factor” value at AHAS P197S-W574L is listed as greater than 28840. Moreover, the negative logarithm of the IC50 (pIC50) is 5.70 at AHAS D376E; less than 4.00 on AHAS D376E-W574L; less than 4.00 against AHAS P197S-D376E; less than 4.00 on AHAS P197S-D376E-W574L; less than 4.00 against AHAS P197S-W574L.

As for `COC(=O)c1ccc(C(F)(F)F)nc1S(=O)(=O)NC(=O)Nc1nc(OC)cc(OC)n1` [Flupyrsulfuron-methyl], the “Resistance Factor” value was 2399 on AHAS D376E; greater than 47863 at AHAS D376E-W574L; greater than 47863 at AHAS P197S-D376E; greater than 47863 at AHAS P197S-D376E-W574L; greater than 47863 at AHAS P197S-W574L.

For the molecule `COc1cc(OC)nc(NC(=O)NS(=O)(=O)c2ncccc2C(F)(F)F)n1` [Flazasulfuron, flazasulfuron], the “Resistance Factor” value at AHAS P197S is reported as 120; on AHAS W574L, 3802; on AHAS D376E it was 759; at AHAS D376E-W574L it was greater than 120226; at AHAS P197S-D376E, greater than 120226; at AHAS P197S-D376E-W574L, greater than 120226. Also, the “Resistance Factor” value on AHAS P197S-W574L was greater than 120226. Also, the negative logarithm of the IC50 (pIC50) at AHAS D376E is 6.20; against AHAS D376E-W574L, less than 4.00; against AHAS P197S-D376E, less than 4.00; on AHAS P197S-D376E-W574L, less than 4.00; against AHAS P197S-W574L it was less than 4.00.

In the case of `CCCOc1nn(C(=O)[N-]S(=O)(=O)c2ccccc2C(=O)OC)c(=O)n1C.[Na+]` [PROPOXYCARBAZONE-SODIUM, propoxycarbazone-sodium], the Percentage phytotoxicity in test [1] (9 DAA) amounted to 76.7%; in test [1] (16 DAA), 97%; in test [1] (24 DAA), 97.7%; in [2] (9 DAA), 53.3%; in test [2] (16 DAA) it was 82.7%; in [2] (24 DAA) it was 76.7%. In addition, the Percentage phytotoxicity in test [3] (9 DAA) amounted to 40%; in test [3] (16 DAA) it was 36.7%; in test [3] (24 DAA), 11.7%; in test [4] (9 DAA) it was 15%; in test [4] (16 DAA), 20%; in [4] (24 DAA) it was 1.7%.

For `COC(=O)c1csc(C)c1S(=O)(=O)NC(=O)n1nc(OC)n(C)c1=O` [Thiencarbazone-methyl, thiencarbazone-methyl], the “Resistance Factor” value on AHAS P197S is reported as 1173; at AHAS W574L, 1173; at AHAS D376E, 371; on AHAS D376E-W574L, greater than 7399; on AHAS P197S-D376E, greater than 7399; at AHAS P197S-D376E-W574L, greater than 7399. Moreover, the “Resistance Factor” value at AHAS P197S-W574L is listed as greater than 7399.
